Test results from ChEMBL document CHEMBL5346903, “Discovery of novel and bioavailable histone deacetylases and cyclin-dependent kinases dual inhibitor to impair the stemness of leukemia cells” (Eur J Med Chem, 2023).
pIC50: −log10 of the molar value. One block for each molecule: values may come before it.

Experiments:
U-937 [1] = experiment: Antiproliferative activity against human U-937 cells incubated for 72 hrs by CCK8 assay; format: functional, cell-based; conditions: U-937, 72 h
HL-60 [2] = experiment: Antiproliferative activity against human HL-60 cells incubated for 72 hrs by CCK8 assay; format: functional, cell-based; conditions: HL-60, 72 h
[3] = Antiproliferative activity against human SKNO-1 cells incubated for 72 hrs by CCK8 assay; format: functional, cell-based; conditions: SKNO-1, 72 h
Kasumi 1 = experiment: Antiproliferative activity against human Kasumi 1 cells incubated for 72 hrs by CCK8 assay; format: functional, cell-based; conditions: Kasumi 1, 72 h
HL-60 [4] = experiment: Induction of apoptosis in human HL-60 cells assessed as viable cells at 2.5 uM incubated for 48 hrs by annexin V-FITC/PI satining based flow cytometry (reference value: 94.7 %); format: functional; conditions: read-out: Activity
HL-60 [5] = experiment: Induction of apoptosis in human HL-60 cells assessed as viable cells at 5 uM incubated for 48 hrs by annexin V-FITC/PI satining based flow cytometry (reference value: 94.7 %); format: functional; conditions: read-out: Activity
HL-60 [6] = experiment: Induction of apoptosis in human HL-60 cells assessed as early apoptotic cells at 1.2 uM incubated for 48 hrs by annexin V-FITC/PI satining based flow cytometry (reference value: 2.4 %); format: functional
U-937 [7] = experiment: Induction of apoptosis in human U-937 cells assessed as viable cells at 1.2 uM incubated for 48 hrs by annexin V-FITC/PI satining based flow cytometry (reference value: 93.7 %); format: functional; conditions: read-out: Activity
U-937 [8] = experiment: Induction of apoptosis in human U-937 cells assessed as early apoptotic cells at 1.2 uM incubated for 48 hrs by annexin V-FITC/PI satining based flow cytometry (reference value: 1.93 %); format: functional
U-937 [9] = experiment: Induction of apoptosis in human U-937 cells assessed as late apoptotic cells at 5 uM incubated for 48 hrs by annexin V-FITC/PI satining based flow cytometry (reference value: 4.23 %); format: functional
U-937 [10] = experiment: Induction of apoptosis in human U-937 cells assessed as necrotic cells at 0.6 uM incubated for 48 hrs by annexin V-FITC/PI satining based flow cytometry (reference value: 0.102 %); format: functional
U-937 [11] = experiment: Induction of apoptosis in human U-937 cells assessed as necrotic cells at 2.5 uM incubated for 48 hrs by annexin V-FITC/PI satining based flow cytometry (reference value: 0.102 %); format: functional
U-937 [12] = experiment: Induction of apoptosis in human U-937 cells assessed as necrotic cells at 5 uM incubated for 48 hrs by annexin V-FITC/PI satining based flow cytometry (reference value: 0.102 %); format: functional
U-937 [13] = experiment: Inhibition of colony formation in human U-937 cells treated for 15 days by soft agar assay; format: functional, cell-based; conditions: time 15.0 day
HL-60 [14] = experiment: Inhibition of colony formation in human HL-60 cells treated for 15 days by soft agar assay; format: functional, cell-based; conditions: time 15.0 day
HL-60 [15] = experiment: Induction of differentiation in human HL-60 cells assessed as increase in CD11b positive cells at 2.5 uM incubated for 24 hrs by FITC staining based flow cytometry (reference value: 1.12 %); format: functional
Histone deacetylase 4 = Histone deacetylase 4 (Homo sapiens, UniProt P56524); experiment: Inhibition of recombinant human HDAC4 using HDAC substrate incubated for 30 mins by fluorescence based assay
Chain of Histone deacetylase 4 (P56524 whole entry): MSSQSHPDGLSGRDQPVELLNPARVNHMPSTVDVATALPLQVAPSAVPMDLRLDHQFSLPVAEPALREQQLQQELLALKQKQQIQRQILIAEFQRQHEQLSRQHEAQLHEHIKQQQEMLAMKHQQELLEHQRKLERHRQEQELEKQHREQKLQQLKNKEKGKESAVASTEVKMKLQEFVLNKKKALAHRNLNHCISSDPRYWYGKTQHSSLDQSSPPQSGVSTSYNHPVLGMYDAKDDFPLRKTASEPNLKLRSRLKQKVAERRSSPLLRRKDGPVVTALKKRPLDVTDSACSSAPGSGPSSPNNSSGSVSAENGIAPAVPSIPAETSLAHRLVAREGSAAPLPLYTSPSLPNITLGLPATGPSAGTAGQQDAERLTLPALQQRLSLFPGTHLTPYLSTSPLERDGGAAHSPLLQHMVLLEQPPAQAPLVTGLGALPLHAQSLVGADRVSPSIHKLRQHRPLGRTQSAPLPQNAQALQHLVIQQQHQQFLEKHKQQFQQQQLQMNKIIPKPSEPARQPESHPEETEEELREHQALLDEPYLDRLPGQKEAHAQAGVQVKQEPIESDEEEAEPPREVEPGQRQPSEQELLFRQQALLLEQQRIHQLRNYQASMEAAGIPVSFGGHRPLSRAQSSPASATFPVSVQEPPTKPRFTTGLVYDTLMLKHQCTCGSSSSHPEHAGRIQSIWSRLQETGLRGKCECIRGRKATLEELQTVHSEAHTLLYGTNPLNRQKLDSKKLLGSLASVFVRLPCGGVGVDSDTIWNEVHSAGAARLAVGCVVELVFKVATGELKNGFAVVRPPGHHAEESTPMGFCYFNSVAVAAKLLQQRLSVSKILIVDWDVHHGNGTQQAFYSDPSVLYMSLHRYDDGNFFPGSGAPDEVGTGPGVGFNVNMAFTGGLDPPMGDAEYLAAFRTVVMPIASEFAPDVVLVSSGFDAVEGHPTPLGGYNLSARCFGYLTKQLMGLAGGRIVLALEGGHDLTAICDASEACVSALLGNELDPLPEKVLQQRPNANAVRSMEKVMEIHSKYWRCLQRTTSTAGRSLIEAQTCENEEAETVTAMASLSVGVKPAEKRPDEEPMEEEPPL

Histone deacetylase 7 = Histone deacetylase 7 (Homo sapiens, UniProt Q8WUI4); experiment: Inhibition of recombinant human HDAC7 using HDAC substrate incubated for 30 mins by fluorescence based assay
Chain of Histone deacetylase 7 (Q8WUI4 whole entry): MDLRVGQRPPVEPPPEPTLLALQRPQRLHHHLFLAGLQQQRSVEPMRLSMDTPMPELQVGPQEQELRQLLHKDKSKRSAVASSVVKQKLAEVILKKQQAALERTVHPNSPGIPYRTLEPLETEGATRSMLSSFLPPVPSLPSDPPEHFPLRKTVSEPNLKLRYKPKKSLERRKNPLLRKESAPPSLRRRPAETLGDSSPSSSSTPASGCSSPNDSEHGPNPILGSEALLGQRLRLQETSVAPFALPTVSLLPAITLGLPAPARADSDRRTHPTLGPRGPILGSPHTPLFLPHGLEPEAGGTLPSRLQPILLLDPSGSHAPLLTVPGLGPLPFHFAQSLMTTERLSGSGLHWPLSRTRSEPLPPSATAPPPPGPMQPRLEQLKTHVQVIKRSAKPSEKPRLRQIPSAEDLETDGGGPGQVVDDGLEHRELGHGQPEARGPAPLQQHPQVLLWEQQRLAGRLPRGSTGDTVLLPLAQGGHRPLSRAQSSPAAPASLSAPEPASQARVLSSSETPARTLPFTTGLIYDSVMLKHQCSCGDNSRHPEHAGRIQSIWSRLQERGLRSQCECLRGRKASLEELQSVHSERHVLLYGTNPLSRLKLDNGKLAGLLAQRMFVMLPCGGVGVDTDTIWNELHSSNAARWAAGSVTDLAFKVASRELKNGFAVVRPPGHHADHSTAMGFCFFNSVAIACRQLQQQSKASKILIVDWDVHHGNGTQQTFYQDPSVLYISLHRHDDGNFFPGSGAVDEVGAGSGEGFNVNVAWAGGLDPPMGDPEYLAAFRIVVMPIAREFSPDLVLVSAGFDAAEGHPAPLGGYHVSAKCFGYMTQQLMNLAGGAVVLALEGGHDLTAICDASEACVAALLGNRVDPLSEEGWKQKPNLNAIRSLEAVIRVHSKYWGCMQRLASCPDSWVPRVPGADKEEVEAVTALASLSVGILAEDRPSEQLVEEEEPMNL

Histone deacetylase 8 = Histone deacetylase 8 (Homo sapiens, UniProt Q9BY41); experiment: Inhibition of recombinant human HDAC8 using HDAC substrate incubated for 30 mins by fluorescence based assay
Chain of Histone deacetylase 8 (Q9BY41 whole entry): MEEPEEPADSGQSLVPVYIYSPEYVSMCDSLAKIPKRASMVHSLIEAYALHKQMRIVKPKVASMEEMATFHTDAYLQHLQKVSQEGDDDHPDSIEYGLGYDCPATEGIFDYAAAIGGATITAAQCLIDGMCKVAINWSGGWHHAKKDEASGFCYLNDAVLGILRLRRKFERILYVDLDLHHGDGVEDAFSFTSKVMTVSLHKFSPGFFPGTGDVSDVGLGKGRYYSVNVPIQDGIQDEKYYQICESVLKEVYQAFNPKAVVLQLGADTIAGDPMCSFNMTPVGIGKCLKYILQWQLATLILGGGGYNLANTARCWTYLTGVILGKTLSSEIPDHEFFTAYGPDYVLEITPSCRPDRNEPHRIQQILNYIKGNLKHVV

[16] = target: Cyclin-dependent kinase 5/CDK5 activator 1 (Homo sapiens) (UniProt Q00535+Q15078); experiment: Inhibition of CDK5/p25NCK (unknown origin) at 100 nM preincubated for 20 mins followed by [gamma-33P]ATP addition measured after 120 mins in presence of ATP by Hot-SpotSM kinase assay relative to control; format: protein-complex assay; conditions: time 140.0 min
Chain of Cyclin-dependent kinase 5/CDK5 activator 1 (Homo sapiens) (Q00535 whole entry): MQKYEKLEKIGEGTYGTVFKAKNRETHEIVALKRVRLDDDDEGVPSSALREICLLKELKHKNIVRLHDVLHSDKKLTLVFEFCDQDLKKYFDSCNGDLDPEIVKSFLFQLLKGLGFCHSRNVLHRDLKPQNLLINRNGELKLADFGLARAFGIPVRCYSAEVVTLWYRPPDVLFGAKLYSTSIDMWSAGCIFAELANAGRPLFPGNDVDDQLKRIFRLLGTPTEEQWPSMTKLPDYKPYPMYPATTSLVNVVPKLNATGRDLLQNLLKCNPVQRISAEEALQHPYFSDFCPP
Chain of Cyclin-dependent kinase 5/CDK5 activator 1 (Homo sapiens) (Q15078 99-307 partner limits assumed): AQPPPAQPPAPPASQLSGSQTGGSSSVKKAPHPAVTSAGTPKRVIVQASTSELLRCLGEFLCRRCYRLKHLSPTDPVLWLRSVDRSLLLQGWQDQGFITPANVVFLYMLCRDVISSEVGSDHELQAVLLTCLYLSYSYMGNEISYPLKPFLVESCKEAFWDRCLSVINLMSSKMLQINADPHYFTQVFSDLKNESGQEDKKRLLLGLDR

HL-60 [17] = experiment: Upregulation of Ac-Histone 3 level in human HL-60 cells incubated for 6 hrs by Western blot analysis; format: functional, cell-based; conditions: dose <= 1000.0 nM
HL-60 [18] = experiment: Induction of apoptosis in human HL-60 cells assessed as early apoptotic cells at 2 uM incubated for 48 hrs by annexin V-FITC/PI satining based flow cytometry (reference value: 1.24 %); format: functional
HL-60 [19] = experiment: Induction of apoptosis in human HL-60 cells assessed as late apoptotic cells at 1 uM incubated for 48 hrs by annexin V-FITC/PI satining based flow cytometry (reference value: 1.33 %); format: functional
HL-60 [20] = experiment: Induction of apoptosis in human HL-60 cells assessed as necrotic cells at 2 uM incubated for 48 hrs by annexin V-FITC/PI satining based flow cytometry (reference value: 0.00 %); format: functional
U-937 [21] = experiment: Induction of apoptosis in human U-937 cells assessed as viable cells at 1 uM incubated for 48 hrs by annexin V-FITC/PI satining based flow cytometry (reference value: 90.0 %); format: functional; conditions: read-out: Activity
U-937 [22] = experiment: Induction of apoptosis in human U-937 cells assessed as viable cells at 2 uM incubated for 48 hrs by annexin V-FITC/PI satining based flow cytometry (reference value: 90.0 %); format: functional; conditions: read-out: Activity
U-937 [23] = experiment: Induction of apoptosis in human U-937 cells assessed as early apoptotic cells at 2 uM incubated for 48 hrs by annexin V-FITC/PI satining based flow cytometry (reference value: 0.945 %); format: functional
U-937 [24] = experiment: Induction of apoptosis in human U-937 cells assessed as late apoptotic cells at 2 uM incubated for 48 hrs by annexin V-FITC/PI satining based flow cytometry (reference value: 7.10 %); format: functional
U-937 [25] = experiment: Induction of apoptosis in human U-937 cells assessed as necrotic cells at 1 uM incubated for 48 hrs by annexin V-FITC/PI satining based flow cytometry (reference value: 1.96 %); format: functional
HL-60 [26] = experiment: Induction of differentiation in human HL-60 cells assessed as increase in CD11b positive cells at 0.5 uM incubated for 24 hrs by FITC staining based flow cytometry (reference value: 1.45 %); format: functional
HL-60 [27] = experiment: Induction of differentiation in human HL-60 cells assessed as increase in CD11b positive cells at 2 uM incubated for 24 hrs by FITC staining based flow cytometry (reference value: 1.45 %); format: functional
U-937 [28] = experiment: Induction of differentiation in human U-937 cells assessed as increase in CD11b positive cells at 0.5 uM incubated for 48 hrs by FITC staining based flow cytometry (reference value: 2.72 %); format: functional
U-937 [29] = experiment: Induction of differentiation in human U-937 cells assessed as increase in CD11b positive cells at 1.5 uM incubated for 48 hrs by FITC staining based flow cytometry (reference value: 2.72 %); format: functional
U-937 [30] = experiment: Induction of differentiation in human U-937 cells assessed as increase in CD11b positive cells at 2 uM incubated for 48 hrs by FITC staining based flow cytometry (reference value: 2.72 %); format: functional
[31] = MRT in Sprague-Dawley rat at 5 mg/kg, iv measured upto 6 hrs by LC/MS-MS analysis; format: ADME, organism-based; conditions: in vivo
[32] = MRT in Sprague-Dawley rat at 25 mg/kg, po measured upto 8 hrs by LC/MS-MS analysis; format: ADME, organism-based; conditions: in vivo

pIC50 (U-937 [1]): 5.33 | pIC50 (HL-60 [2]): 5.51
SMILES: Nc1cc(F)ccc1NC(=O)c1ccc(CNC(=O)/C=C/c2cccnc2)cc1 [TUCIDINOSTAT]
pIC50 [3]: 5.25 | pIC50 (Kasumi 1): < 5.00 | viability at 2.5 µM (HL-60 [4]): 56.1% | viability at 5 µM (HL-60 [5]): 18.1% | Activity (HL-60 [6]): 3.72% | viability at 1.2 µM (U-937 [7]): 90.3% | Activity (U-937 [8]): 2.74% | Activity (U-937 [9]): 22.7% | Activity (U-937 [10]): 0.072% | Activity (U-937 [11]): 0.084% | Activity (U-937 [12]): 0.117% | inhibition (U-937 [13]): Dose-Dependent Effect | inhibition (HL-60 [14]): Dose-Dependent Effect | Activity (HL-60 [15]): 53.5%

pIC50 (U-937 [1]): 6.14 | pIC50 (HL-60 [2]): 5.84 | pIC50 (Histone deacetylase 4): < 6.00 | pIC50 (Histone deacetylase 7): < 6.00 | pIC50 (Histone deacetylase 8): 6.00 | inhibition [16]: 95.2% | MRT [31]: 0.39 h | MRT [32]: 1.27 h
SMILES: Nc1ccccc1NC(=O)c1ccc(NC(=O)c2n[nH]cc2NC(=O)c2c(Cl)cccc2Cl)cc1
pIC50 [3]: 5.79 | pIC50 (Kasumi 1): 6.05 | Activity (HL-60 [17]): Dose-Dependent Effect | Activity (HL-60 [18]): 35.4% | Activity (HL-60 [19]): 39% | Activity (HL-60 [20]): 4.87% | viability at 1 µM (U-937 [21]): 48.9% | viability at 2 µM (U-937 [22]): 5.82% | Activity (U-937 [23]): 2.14% | Activity (U-937 [24]): 88.7% | Activity (U-937 [25]): 15.1% | inhibition (U-937 [13]): Dose-Dependent Effect | inhibition (HL-60 [14]): Dose-Dependent Effect | Activity (HL-60 [26]): 6.09% | Activity (HL-60 [27]): 62.2% | Activity (U-937 [28]): 3.96% | Activity (U-937 [29]): 16% | Activity (U-937 [30]): 18.5%
